Test results: paper PMC7966987, “Insights into the catalytic properties of the mitochondrial rhomboid protease PARL” (The Journal of Biological Chemistry, 2021)
Residues, ends and D or L forms follow the SMILES beside them.

T1: PARLΔ77 (Homo sapiens, UniProt Q9H300)
T1 construct: GFP-hexahistidine (behind a TEV cleavage site) (C, cleaved yes); made in house; host or cells: Pichia pastoris
T1 sequence (Q9H300 78-379): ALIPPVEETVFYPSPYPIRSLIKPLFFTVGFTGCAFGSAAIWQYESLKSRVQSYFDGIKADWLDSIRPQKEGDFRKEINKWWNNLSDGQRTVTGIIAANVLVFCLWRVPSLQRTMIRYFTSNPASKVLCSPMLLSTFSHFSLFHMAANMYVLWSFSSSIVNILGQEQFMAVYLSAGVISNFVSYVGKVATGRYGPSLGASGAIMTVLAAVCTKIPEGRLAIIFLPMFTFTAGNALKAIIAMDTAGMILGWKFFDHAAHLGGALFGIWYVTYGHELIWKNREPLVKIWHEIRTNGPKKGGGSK


How the values were obtained:
Rhomboid-1 = settings: cited from earlier work
Source text: (§1) Rhomboids were initially discovered to be serine proteases because the first identified rhomboid protease from Drosophila, Rhomboid-1, was sensitive to serine protease inhibitors dichloroisocoumarin (DCI) and tosyl phenylalanyl chloromethylketone (TPCK) ([44]).

PARLΔ77 [1] = target: T1, PARLΔ77; test: Inhibition by commercial serine protease inhibitors, PARLΔ77 in proteoliposomes; assay type: biochemical; settings: 100 μM inhibitor, in PL, IQ-PINK1 and IQ-PGAM5 substrates, N=3
Experimental: (§2) We examined whether inhibitors belonging to three standard serine protease inhibitors families—sulfonyl fluoride (PMSF), chloromethyl ketone (TPCK), and coumarin (DCI)—were able to inhibit PARL when tested with IQ-PINK1 and IQ-PGAM5 substrates. […] Overall this supports the view that for PARL, specific inhibitors will need to be developed similar to bacterial rhomboid proteases ([48], [49]).
The activity assay with PARL reconstituted in PL was performed the same way as for PARL in DDM with the only difference being the activity buffer, where DDM was omitted (50 mM Tris-HCl pH 7.0, 150 mM NaCl, 10% glycerol). For inhibitory studies, PARL in PL (0.8 μM) was incubated with inhibitors (20 μM) in activity buffer for 30 min, and then the proteolytic reaction was started with the addition of substrate (5 μM). […]
(§3) inhibitors. Bar graphs for percent activity of detergent solubilized (A) and proteoliposome reconstituted (B) PA R L Δ77with100µMofinhibitoradded prior to the addition of IQ-PINK1 and IQ-PGAM5 substrates. Experiments were conducted in duplicate with an N=3.
(§4) Individual data points (black dots) are indicated on the bar graphs, representing the mean […]

PARLΔ77 [2] = target: T1, PARLΔ77; test: Inhibition by commercial serine protease inhibitors, PARLΔ77 in detergent; assay type: biochemical; settings: 100 μM inhibitor, IQ-PINK1 and IQ-PGAM5 substrates, N=3
Source text: as §2, with “[49]). […]” for “[49]).”
as §3, §4

PARLΔ77 [3] = target: T1, PARLΔ77; test: Competition assay, IQ-PGAM5(20-29) cleavage in presence of PINK1(89-111); assay type: biochemical; settings: read-out: Ki (Kd represented by Ki of the PARL-PINK1(89-111) complex)
Source text: (§5) To determine if substrates bind to the same site, we performed competition binding assays using fluorescent IQ-PGAM5^20–29 and IQ-Smac/Diablo^51–60 as the main substrates and nonfluorescent PINK1^89–111 (^89[…]^111) as a competing substrate (Fig. 4). The longer version of substrate was used in this assay in order to reveal possible exosite interactions of substrate with PARL, assuming that regions surrounding the cleavage site might be involved in a primary substrate binding with a putative exosite.
(§6) Fluorescence detection of each substrate concentration in the presence of corresponding PINK189-111 without enzyme was used as a negative control. Initial velocities were determined for each substrate concentration. Michaelis–Menten plots were subjected to global fit to distinguish the kinetic model and determine the kinetic parameters. Values are represented as mean ± SEM (N = 3). […] The only names printed in the panels are the substrates on the x-axis, and KM and kcat are assigned to them.
(§7) The Michaelis–Menten curves of PARL-mediated cleavage of IQ-PGAM5^20–29 and IQ-Smac/Diablo^51–60 were obtained in the presence of different concentrations of PINK1^89–111.

PARLΔ77 [4] = target: T1, PARLΔ77; test: Competition assay, IQ-Smac/Diablo(51-60) cleavage in presence of PINK1(89-111); assay type: biochemical; settings: read-out: Ki (Kd represented by Ki of the PARL-PINK1(89-111) complex)
Source text: as §5, §6, §7

[5] = test system: bacterial rhomboid proteases; settings: cited from earlier work
Source text: as §1

[6] = target: PARLΔ77 (β-cleavage form of human PARL) (human) (UniProt Q9H300); test: competitive inhibition of FRET peptide cleavage (enzyme kinetics); PARLΔ77 0.8 μM; IQ-PGAM5 20-29 (0.13-19 μM) as main substrate; nonfluorescent PINK1 89-111 at 2.5, 5, 10, 20 μM; Michaelis–Menten plots fitted globally, competitive model; Kd represented by Ki
[7] = target: PARLΔ77 (β-cleavage form of human PARL) (human) (UniProt Q9H300); test: competitive inhibition of FRET peptide cleavage (enzyme kinetics); PARLΔ77 0.8 μM; IQ-Smac/Diablo 51-60 (0.3–25 μM) as main substrate; nonfluorescent PINK1 89-111 at 2.5, 5, 10, 20 μM; Michaelis–Menten plots fitted globally, competitive model; Kd represented by Ki

PARLΔ77 (β-cleavage form of human PARL) (human), sequence (Q9H300 77-379, stated change not applied): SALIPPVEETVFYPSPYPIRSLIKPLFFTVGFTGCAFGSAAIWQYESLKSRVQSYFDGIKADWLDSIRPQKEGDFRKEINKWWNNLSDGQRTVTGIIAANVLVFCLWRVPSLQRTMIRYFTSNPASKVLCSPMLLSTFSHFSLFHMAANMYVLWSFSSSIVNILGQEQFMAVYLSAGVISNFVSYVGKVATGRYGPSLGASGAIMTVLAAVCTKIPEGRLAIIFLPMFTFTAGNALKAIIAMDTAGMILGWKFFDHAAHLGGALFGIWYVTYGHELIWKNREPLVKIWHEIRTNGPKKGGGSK

| Molecule | inhibition of Drosophila Rhomboid-1 (Rhomboid-1) | inhibition of PARL activity (PARLΔ77 [1]) | inhibition of PARL activity (PARLΔ77 [2]) | further results |
| --- | --- | --- | --- | --- |
| O=c1oc(Cl)c(Cl)c2ccccc12 [DCI, dichloroisocoumarin] | sensitive | largest inhibitory effect | largest inhibitory effect |  |
| CC[C@H](C)[C@H](NC(=O)[C@H](CC(C)C)NC(=O)CNC(=O)[C@H](CC(C)C)NC(=O)CNC(=O)[C@H](CC(C)C)NC(=O)CNC(=O)[C@H](Cc1ccccc1)NC(=O)[C@H](C)NC(=O)[C@H](CC(C)C)NC(=O)[C@H](Cc1ccccc1)NC(=O)[C@@H](NC(=O)[C@H](C)NC(=O)[C@H](CCCNC(=N)N)NC(=O)CNC(=O)[C@H](CS)NC(=O)[C@@H]1CCCN1C(=O)CNC(=O)[C@H](C)NC(=O)[C@H](CS)NC(=O)CNC(=O)[C@H](Cc1c[nH]c2ccccc12)NC(=O)[C@H](C)NC(=O)[C@H](CO)NC(=O)CN)C(C)C)C(=O)O [PINK1^89–111] (H-GSAWGCAGPCGRAVFLAFGLGLGLI-OH) |  |  |  | Ki (PARLΔ77 [3]): 2400 ± 600 nM; Ki (PARLΔ77 [4]): 2300 ± 700 nM |
| O=S(=O)(F)Cc1ccccc1 [PMSF] |  | not inhibited | not inhibited | inhibition of bacterial rhomboid proteases [5]: does not act on bacterial rhomboid proteases |
| Cc1ccc(S(=O)(=O)N[C@@H](Cc2ccccc2)C(=O)CCl)cc1 [TPCK, tosyl phenylalanyl chloromethylketone] | sensitive | partially inhibits | partially inhibits |  |
| AWGCAGPCGRAVFLAFGLGLGLI [PINK1 TM domain (amino acids 89–111), nonfluorescent] |  |  |  | Ki [6]: 2400 nM; Ki [7]: 2300 nM |
